Measurements reported in patent US8846845B2, “Bioabsorbable and biocompatible polyurethanes and polyamides for medical devices” (Bezwada Biomedical, LLC, priority 2005, dated 2014).

assay: In vitro hydrolysis of functionalized phenolics in pH 7.4 buffer at reflux, monitored by TLC; type: physicochemical; conditions: reflux temp. (100° C.); 500 mg compound in 50 ml pH 7.4 buffer solution; TLC against original phenolic as control
Procedure: Selected compounds were examined for the rate of hydrolysis by conducting in vitro hydrolysis studies at reflux temp. (100° C.). For each experiment, 500 mg of a func-tionalized compound and 50 ml of pH 7.4 buffer solution (purchased from Aldrich Chemical) were charged into a 100 ml round bottom flask fitted with a condenser and the contents were refluxed. In vitro hydrolysis of the functionalized phenolics was monitored by thin layer chromatography (TLC) using corresponding starting material (original phenolic) as a control. In vitro hydrolysis was continued at reflux until the functionalized molecule hydrolyzed to the starting phenolic compound.

| time in which the functionalized compound was hydrolyzed to the starting phenolic compound [h] | SMILES |
| --- | --- |
| 8 | COC(=O)COC(=O)COc1ccc(NC(C)=O)cc1 [Example 48, (4-Acetylaminophenoxy)acetic acid methoxycarbonyl methyl ester] |
| 3 | COC(=O)COC(=O)COc1ccc(N)cc1 [Example 45, (4-Aminophenoxy)-acetic acid methoxycarbonylmethyl ester] |
| 40 | CC(Oc1ccc(N)cc1)C(=O)OCCOC(=O)C(C)Oc1ccc(N)cc1 (stereo not shown) [Example 32, 2-(4-Aminophenoxy)-propionic acid 2-[2-(4-aminophenoxy)-propionyloxy]-ethyl ester] |

| SMILES | time in which the functionalized compound was hydrolyzed to the starting phenolic compound [h] |
| --- | --- |
| Nc1ccc(OCC(=O)OCCOC(=O)COc2ccc(N)cc2)cc1 [Example 25, (4-Amino-phenoxy)-acetic acid-2-[2-(4-amino-phenoxy)-acetoxy]-ethyl ester] | 11.5 |
